Molecules are shown by their SMILES. pEC50: −log10 of the molar value.

In one assay the target is T1, TRPV4 channel receptors (Bos taurus, UniProt A0A8F4X677).
T1 construct: obtained using this method in bovine articular chondrocytes; endogenous in cells; host or cells: bovine articular chondrocytes
Briefly: Ca2+ influx by Fura-2 fluorescence on FlexStation in bovine articular chondrocytes. Format: cell-based. An excerpt:
Ca^2+ influx mediated through TRPV4 channel receptors can be measured using articular chondrocytes from such species as, but not limited to, human, rat, canine, rabbit, monkey, and bovine, using standard techniques in the art such as, but not limited to, Fura-2 (Invitrogen/Molecular Probes, Eugene, Oreg.) fluorescence using a FlexStation (manufactured by Molecular Devices, Sunnyvale, Calif.). Table 1 lists biological data for several representative compounds obtained using this method in bovine articular chondrocytes.
(§1) All exemplary compounds of the present invention were assessed using at least one of the biological assays presented above. Compounds presented in the Examples had EC50 values of about 0.0001 μM to 1 μM as measured by Flex Station using bovine articular chondrocytes and pEC50 values between about 6.0 to 9.1 as measured by FLIPR assay using TRPV4 expressing HEK cells.

For a further assay, the target named is T2, TRPV4 channel receptor (Homo sapiens, UniProt Q9HBA0).
T2 construct: expressed in transfected cells; host or cells: HEK cells
T2 sequence (Q9HBA0 whole entry): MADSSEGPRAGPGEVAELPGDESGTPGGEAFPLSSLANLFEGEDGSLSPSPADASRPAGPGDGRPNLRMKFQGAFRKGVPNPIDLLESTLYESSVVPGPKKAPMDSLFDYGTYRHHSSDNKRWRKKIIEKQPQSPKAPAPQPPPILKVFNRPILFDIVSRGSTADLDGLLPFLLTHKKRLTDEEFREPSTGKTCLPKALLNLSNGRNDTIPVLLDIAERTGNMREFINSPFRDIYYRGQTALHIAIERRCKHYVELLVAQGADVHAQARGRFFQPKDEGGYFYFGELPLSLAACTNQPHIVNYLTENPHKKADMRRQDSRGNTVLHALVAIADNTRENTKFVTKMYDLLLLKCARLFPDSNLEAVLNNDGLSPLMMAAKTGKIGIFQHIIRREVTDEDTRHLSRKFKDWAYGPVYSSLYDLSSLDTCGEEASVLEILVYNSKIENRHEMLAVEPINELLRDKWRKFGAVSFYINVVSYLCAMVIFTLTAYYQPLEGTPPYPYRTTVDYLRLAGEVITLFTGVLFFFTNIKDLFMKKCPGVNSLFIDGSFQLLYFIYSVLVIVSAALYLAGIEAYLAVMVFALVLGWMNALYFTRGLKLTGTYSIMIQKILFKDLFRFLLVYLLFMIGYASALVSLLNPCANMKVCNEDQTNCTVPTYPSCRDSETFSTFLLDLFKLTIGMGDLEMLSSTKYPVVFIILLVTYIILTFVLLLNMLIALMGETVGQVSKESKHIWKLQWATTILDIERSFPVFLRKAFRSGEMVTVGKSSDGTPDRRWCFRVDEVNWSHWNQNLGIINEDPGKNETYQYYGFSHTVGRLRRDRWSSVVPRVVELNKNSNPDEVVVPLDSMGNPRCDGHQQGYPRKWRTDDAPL
Briefly: FLIPR assay using TRPV4 expressing HEK cells. The assay is classed as cell-based. The note with it: FLIPR method; read-out: pEC50 values (converted).
From the text: Other techniques used to measure TRPV4 channel receptor activation in chondrocytes include, but are not limited to: FLIPR assay, measuring a compound's capability to reduce the amount of ADAMTSs produced and/or released in response to a catabolic stimulus by a cell comprising a TRPV4 channel receptor; measuring a compound's capability to reduce the amount of MMPs produced and/or released in response to a catabolic stimulus by a cell comprising a TRPV4 channel receptor; measuring a compound's capability to effect the amount of nitric oxide (NO) produced in response to a catabolic stimulus by a cell comprising a TRPV4 channel receptor; and measuring a compound's capability to attenuate the inhibition of matrix synthesis in response to a catabolic stimulus by a cell comprising a TRPV4 channel receptor.
as §1

T1 sequence (A0A8F4X677 1-871): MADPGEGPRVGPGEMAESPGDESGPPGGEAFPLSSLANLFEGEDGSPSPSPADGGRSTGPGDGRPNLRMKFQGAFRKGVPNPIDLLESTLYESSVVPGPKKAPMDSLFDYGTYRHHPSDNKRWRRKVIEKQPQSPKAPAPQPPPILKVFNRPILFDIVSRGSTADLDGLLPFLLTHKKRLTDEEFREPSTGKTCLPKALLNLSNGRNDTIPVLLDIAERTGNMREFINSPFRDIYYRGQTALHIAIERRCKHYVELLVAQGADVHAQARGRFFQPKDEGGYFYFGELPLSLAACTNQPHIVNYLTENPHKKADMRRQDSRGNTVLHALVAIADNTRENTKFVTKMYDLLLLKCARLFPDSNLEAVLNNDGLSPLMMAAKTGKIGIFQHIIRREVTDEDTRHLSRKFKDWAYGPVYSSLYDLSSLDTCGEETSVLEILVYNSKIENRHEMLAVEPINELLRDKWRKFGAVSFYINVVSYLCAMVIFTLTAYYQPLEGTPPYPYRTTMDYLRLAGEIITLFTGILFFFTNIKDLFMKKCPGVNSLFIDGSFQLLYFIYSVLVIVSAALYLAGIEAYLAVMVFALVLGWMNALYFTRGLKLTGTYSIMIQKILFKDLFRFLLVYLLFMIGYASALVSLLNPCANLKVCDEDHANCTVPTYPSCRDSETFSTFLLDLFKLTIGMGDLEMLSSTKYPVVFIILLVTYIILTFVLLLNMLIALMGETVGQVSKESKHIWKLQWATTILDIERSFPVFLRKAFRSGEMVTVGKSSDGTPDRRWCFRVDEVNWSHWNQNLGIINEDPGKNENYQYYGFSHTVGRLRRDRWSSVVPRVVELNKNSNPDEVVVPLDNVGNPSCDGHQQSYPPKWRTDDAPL

By pEC50 is commonly meant −log10 of the EC50, conventionally taken in molar units. Low readings indicate a large EC50, high ones a small EC50. As to `CC(C)C[C@H](NC(=O)c1cc2ccccc2s1)C(=O)N1CCN(CCNS(=O)(=O)c2ccc(Cl)cc2Cl)CC1` [Example 1, N-((1S)-1-{[4-(2-{[(2,4-Dichlorophenyl)sulfonyl]amino}ethyl)-1-piperazinyl]carbonyl}-3-methylbutyl)-1-benzothiophene-2-carboxamide], the pEC50 at TRPV4 channel receptors was 5.30 to 7.05. Further, the EC50 at TRPV4 channel receptor is 0.1 to 0.794 µM.
Consider `CC(C)C[C@H](NC(=O)c1cc2ccccc2s1)C(=O)N1CCN(C(=O)CNS(=O)(=O)c2ccc(Cl)cc2Cl)CC1` [Example 3, N-((1S)-1-{[4-({[(2,4-Dichlorophenyl)sulfonyl]amino}acetyl)-1-piperazinyl]carbonyl}-3-methylbutyl)-1-benzothiophene-2-carboxamide], for which the negative-log EC50 (pEC50) at TRPV4 channel receptors is 7.05 to 7.70. Besides, at TRPV4 channel receptor, the EC50 was 0.01 to 0.0794 µM.
`CC(C)C[C@H](NC(=O)c1cc2ccccc2s1)C(=O)N1CCN(C(=O)[C@H](C)NS(=O)(=O)c2ccc(Cl)cc2Cl)CC1` [Example 9, N-((1S)-1-{[4-((2S)-2-{[(2,4-dichlorophenyl)sulfonyl]amino}propanoyl)-1-piperazinyl]carbonyl}-3-methylbutyl)-1-benzothiophene-2-carboxamide] showed a pEC50 at TRPV4 channel receptors of 7.72 to 10.00. The EC50 on TRPV4 channel receptor was below 0.00794 µM.

Source of the values: patent publication US20080318945A1, “Novel Compounds” (priority 2005, published 2008).
